Results as given in publication PMC10815079, “α-L-Fucosidases from an Alpaca Faeces Metagenome: Characterisation of Hydrolytic and Transfucosylation Potential” (International Journal of Molecular Sciences, 2024).

How the values were obtained:
Experiment in all cases: p-nitrophenol release at […] nm, Michaelis-Menten fit
Type in all cases: biochemical, uncultured bacterium (alpaca faeces metagenome)
Details in all cases: 50 mM potassium phosphate pH 7.5, 20 °C
[1] = test system: Fuc25C
[2] = test system: Fuc25E
[3] = test system: Fuc25D
[4] = test system: Fuc25A

C[C@@H]1O[C@@H](Oc2ccc([N+](=O)[O-])cc2)[C@@H](O)[C@H](O)[C@@H]1O [pNP-αFuc]
Km [1]: 1400 ± 374 µM | Km [2]: 85.1 ± 12.9 µM | Km [3]: 79.7 ± 8.6 µM | Km [4]: 334 ± 21.4 µM
